“Also recorded” adds a separate entry of the source.
Columns and labels:
Chk1 = biological target: T1, Chk1 (Homo sapiens, UniProt O14757); assay: Western blot of Chk1 activity (Cdc2 Tyr15 and CDC25C Ser216 phosphorylation) in irradiated HeLa cells; type: cell-based; parameters: endogenous in cells; host or cells: HeLa; conditions: 10 Gy
T1 sequence (O14757 1-476): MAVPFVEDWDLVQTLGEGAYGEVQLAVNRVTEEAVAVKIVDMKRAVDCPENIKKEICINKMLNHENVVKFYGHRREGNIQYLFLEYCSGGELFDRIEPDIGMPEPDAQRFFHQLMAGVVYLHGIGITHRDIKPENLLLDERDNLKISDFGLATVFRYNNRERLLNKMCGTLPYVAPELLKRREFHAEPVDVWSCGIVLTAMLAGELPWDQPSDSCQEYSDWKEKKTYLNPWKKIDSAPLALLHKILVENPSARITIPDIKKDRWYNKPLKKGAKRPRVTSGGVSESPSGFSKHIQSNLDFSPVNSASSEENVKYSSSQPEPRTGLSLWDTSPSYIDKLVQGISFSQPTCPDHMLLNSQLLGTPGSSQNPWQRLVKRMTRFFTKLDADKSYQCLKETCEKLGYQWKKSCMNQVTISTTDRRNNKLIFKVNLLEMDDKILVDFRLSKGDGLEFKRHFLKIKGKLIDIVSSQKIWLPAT
Experimental: Protein extract (5-60 μg) was added to 4× gel loading buffer and 10× denaturing solution (Invitrogen) in appropriate proportions, and samples were incubated at 70° C. for 10 min. Samples were run at 200V for 1 hr on a 4-12% Bis-tris gradient gel (Invitrogen). After electrophoresis, samples were transferred for 1.5 hr (350 mA) to a Nitrocellulose membrane (Millipore) using a submerged transfer apparatus (Bio-Rad). Membranes were then blocked with 5% milk in Tris-buffered saline with 0.1% tween (TBST) and probed overnight at 4° C. with the following antibodies: anti-zebrafish Chk1 (diluted 1:200), anti-zebrafish Chk2 (1:200), anti-P-Cdc2 (1:1000), anti-actin (1:2000), anti-human ATR (1:500) and Stressgen anti-human-caspase-3 (1:500) for zebrafish immunoblots; and anti-caspase-2 (1:200), Upstate anti-caspase-3 (1:500), anti-P-ATM (1:500), anti-ATM (1:500), Santa Cruz anti-human Chk1 (1:1000), Santa Cruz anti-human Chk2 (1:1000), anti-P-Chk1 (1:500), anti-P-Chk2 (1:500), anti-P-H2A.X (1:2000), anti-P-cdc25C (1:1000), anti-P-HSP27 (1:1000), anti-HSP27 (1:1000), anti-P-Cdc2 (1:1000), anti-p53 (1:1000) and anti-GAPDH (1:5000) for immunoblots of human tumor cell lysates. Detailed references for all primary antibodies can be found in the ‘Antibodies’ section elsewhere herein.

p53 mutant embryos = assay: Live acridine orange (AO) assay of IR-induced cell death in inhibitor-treated p53 mutant embryos; type: in vivo, zebrafish
From the text: Chk1 inhibitors hold considerable promise in cancer therapy, as they are expected to synergize with genotoxic agents to kill tumor cells lacking functional p53, without affecting normal cells (Kawabe, 2004; Zhou and Bartek, 2004). […] Gö6976 has not been tested in vivo in a vertebrate model system. We therefore evaluated it as well as specific Chk2 and ATM inhibitors in the zebrafish system. Drug toxicity was monitored by scoring the AO reactivity of inhibitor-treated, but non-irradiated, p53^+/+ embryos (left column in FIG. 8A). Unless otherwise indicated, the inhibitors were applied at 18 hpf (that is, immediately before IR) for a total of 6 hours.
Live zebrafish embryos were dechorionated in pronase (2.0 mg/mL in egg water) for 3 to 5 min and rinsed five times in egg water at 18 hpf. Embryos were then γ-irradiated (12.5 Gy) using a ^137Cs-irradiator (Gammacell 1000) at 18 hr post-fertilization (hpf). At 24 hpf, embryos were incubated in […] Acridine Orange (AO; Sigma A-6014) in egg water for 30 min at 28.5° C., followed by 3 quick rinses and three 10-min washes in egg water. 5-10 AO-treated embryos were anesthetized in Tricaine ([…]; 3-amino benzoic acid ethylester from Sigma, A-5040) and mounted laterally on a glass slide in warm 0.5% agarose in egg water by streaking a thin layer of the warm agarose across the surface of the slide, and gently pulling the embryos across the agar with a transfer pipette. Lateral images of each zebrafish were acquired on a Zeiss Axioplan2 fluorescence microscope (5× lens), using OpenLab software and a Hammamatsu C4742-95 digital camera. All images were then converted to 8-bit grayscale in NIH ImageJ using the Image>Type>8-bit command. Next, we cropped the images using the Polyonal Selection tool and the Image>Crop functions to include only the trunk of the animal from the head until the beginning of the yolk tube (MO screen; FIG. 1B) or along the entire spinal cord (epistasis analyses; FIGS. 6A & 6D). The area outside of the selected region of interest was cleared using the Edit>Clear Outside command to create a distinct boundary around the area of interest (this is important as it allows the area of interest to be precisely selected after applying the threshold). Next, we split the acquired images into features of interest and background using the Image>Adjust>Threshold function in NIH ImageJ. We then set the maximum threshold of each image to 255 (the lower slide bar in the Threshold window), and adjusted the minimum threshold to the optimized threshold (see below). The threshold was applied using the Black & White display option, with the following Lut options applied; Thresholded pixels to foreground color; Remaining pixels to background color and Black foreground, white background. […] Next, we re-selected the region of interest on the thresholded image, following the bounded image carefully, and analyzed the pixels of the image using the Analyze>Analyze Particles function. The Minimum Size was set to 1px, the Maximum Size was set to the maximum value of 999999 and the Masks option was selected under the Show pull-down menu. The following extended options were also selected: Display Results; Clear Results; Summarize, Size Distribution and Record Starts. If selected by default, the Exclude on Edges option was deselected. The Area Fraction for each image selection was taken from the Summary window, which is the percentage of pixels in the selection that were black. To ensure valid comparisons of the AO labeling results across all experiments, we quantitatively determined a baseline Area Fraction across a large set of simultaneously irradiated and processed p53^+/+ embryos. […] This analysis yielded a mean value for the total labeled surface area of ˜20% (see FIG. 1B, light gray bar). We included at least 6 p53^+/+ non-injected control embryos in all subsequent AO-labeling experiments. […]

## Cn1c2ccccc2c2c3c(c4c5ccccc5n(CCC#N)c4c21)CNC3=O [Gö6976]
Chk1; 1 μM
  Chk1 inhibition: potent Chk1 inhibition
Chk1; increasing concentrations, 24 hpIR
  phosphorylation of Chk1 readouts CDC2 and CDC25C: inhibited the phosphorylation of CDC2 and CDC25C
p53 mutant embryos; 1 μM, 12.5 Gy IR at 18 hpf, n=210
  Gö6976-treated p53 mutants showing a marked IR-response recovery: 95%
p53 mutant embryos; 12.5 Gy at 18 hpf, Gö6976 1 μM, KU55933 10 μM, Chk2 Inhibitor II 10 μM, 6 hr
  radiosensitization of p53 mutants (IR-induced AO labeling): restored a complete response to IR; also recorded: restored IR-induced cell death with complete penetrance
p53 mutant embryos; p53 mutant embryos
  exposure immediately after IR sufficient to phenocopy chk1 MO knockdown: 1.5 h
p53 mutant embryos; p53 mutants treated with Gö6976 for 6 hours, IR
  AO staining response versus p53 mutant response: ~500 fold

From patent publication US9000027B2, “Chk1 suppresses a caspase-2 apoptotic response to DNA damage that bypasses p53, bcl-2 and caspase-3” (Dana-Farber Cancer Institute, Inc., priority 2008, dated 2015)
